We go through 6 compounds from patent publication US12338198B2, “Cancer cell growth inhibiting composition and processed food” (HAGIHARA FARM PRODUCTION INSTITUTE CO., LTD., priority 2019, dated 2025).

The assay relates to Jurkat cells. Briefly: Effect of compounds on growth of human leukemic T-cell line Jurkat cells (Trypan Blue live cell count). The class given is cell-based. The note with it: for pIC50: Homo sapiens, growth of Jurkat cells, viable cell count; for cancer cell growth inhibiting effect compared with phytol: Jurkat cells, 24-72 hours. As to the method: Human leukemic T-cell line Jurkat cells were obtained from the RIKEN BioResource Research Center (Tsukuba-shi, Ibaraki Prefecture). The cells were cultured in RPMI1640 medium (Wako Pure Chemical Industries, Ltd., Osaka-shi, Osaka Prefecture) containing 10% fetal bovine serum (Thermo Fisher Scientifics, K.K., MA, USA), 100 U/mL penicillin and 100 μg/mL spletomycin (both Life Technologies, Carlsbad, CA, USA) at 37° C. in a 95% air-5% CO2 environment.
Jurkat cells were adjusted to 1×10^5 cells/mL and seeded in 24-well multi-plates (Thermo Fisher Scientifics K. K.) by 500 μL/well. After seeding, phytol, aminophytol, amidophytol, methylaminophytol, hexylaminophytol, and acetamidophytol were adjusted with distilled water to a final concentration of 10 μM, 25 μM, and 50 μM respectively, and then added. Note that no compound is added to a control. After adding respective compounds, the cells were stained with Tripan Blue (Life Technologies) after 24, 48, and 72 hours, and live cells were counted using a hemocytometer.
A horizontal axis represents culture time (hours) and a vertical axis represents the number of viable cells (×10^5 cells/mL). “Cont” in the figures represents the control, and “10 μM,” “25 μM,” and “50 μM” represent concentration. FIG. 1 is for phytol; FIG. 2 is for aminophytol; FIG. 3 is for amidophytol; FIG. 4 is for monomethylaminophytol; FIG. 5 is for monohexylaminophytol; and FIG. 6 is for acetamidophytol.

The mark [1] stands for this setting: after 24 hours at a concentration of 25 μM.

Broadly, the pIC50 is the negative decadic logarithm of the IC50, by convention in mol/L. Read a low pIC50 as a large IC50.

Structures are written as SMILES. pIC50: −log10 of the molar value.

The compound `CCCCCCNC/C=C(\C)CCC[C@H](C)CCC[C@H](C)CCCC(C)C` (racemic) [monohexylaminophytol, (E)-N-hexyl-3,7,11,15-tetramethylhexadec-2-en-1-amine] showed a pIC50 of 5.07. Besides, the “cancer cell growth inhibiting effect compared with phytol” value (10, 25, 50 μM) is “more effect than phytol”. For the same compound, the viable cells entry under setting [1] is “few cells survived”.
For `CNC/C=C(\C)CCC[C@H](C)CCC[C@H](C)CCCC(C)C` (racemic) [monomethylaminophytol, (E)-N,3,7,11,15-pentamethylhexadec-2-en-1-amine], the pIC50 was 5.18. In addition, the “cancer cell growth inhibiting effect compared with phytol” value (10, 25, 50 μM) was “more effect than phytol”. Further, the viable cells entry under setting [1] is on record as “few cells survived”.
`C/C(=C\CN)CCC[C@H](C)CCC[C@H](C)CCCC(C)C` (racemic) [aminophytol, (E)-3,7,11,15-tetramethylhexadec-2-en-1-amine]: the pIC50 was 5.42. The “cancer cell growth inhibiting effect compared with phytol” value (10, 25, 50 μM) was “more effect than phytol”. Under setting [1], the viable cells entry was “few cells survived”.
The corresponding values for `C/C(=C\C(N)=O)CCC[C@H](C)CCC[C@H](C)CCCC(C)C` (racemic) [amidophytol, (E)-3,7,11,15-tetramethylhexadec-2-enamide] are 5.02, “more effect than phytol” and “few cells survived”.
With `C/C(=C\CO)CCC[C@H](C)CCC[C@H](C)CCCC(C)C` [phytol, reference compound], the pIC50 was 4.53. For the same compound, the “growth of Jurkat cells (cancerous cells)” value (10, 25, 50 μM, 24, 48, 72 hours, concentration-dependence observed) is recorded as “inhibited the growth”. In addition, for the setting “after 72 hours at a concentration of 50 μM”, the viable cells entry is “viable cells could still be identified”.
`CC(=O)NC/C=C(\C)CCC[C@H](C)CCC[C@H](C)CCCC(C)C` (racemic) [acetamidophytol, (E)-N-(3,7,11,15-tetramethylhexadec-2-en-1-yl)acetamide] gave a pIC50 of 4.67. The “cancer cell growth inhibiting effect compared with phytol” value (10, 25, 50 μM) is “more effect than phytol”. In addition, the viable cells result (at a concentration of 25 μM) is “viable cells could still be identified”. In addition, the viable cells entry (at a concentration of 50 μM) is on record as “few cells survived”.
